We go through 20 compounds from ChEMBL document CHEMBL2440051, “Structure-activity relationships of lanostane-type triterpenoids from Ganoderma lingzhi as α-glucosidase inhibitors” (Bioorg Med Chem Lett, 2013).

Target in one experiment: not listed separately
Put plainly: Inhibition of alpha-glucosidase (unknown origin) using sucrose as substrate assessed as formation of glucose after 30 mins by glucose oxidase method. Also noted: species or system Homo sapiens.
One may read the IC50 as the concentration that inhibits the measured activity by half. On to `CC(CC(=O)C[C@@H](C)[C@H]1CC(=O)[C@@]2(C)C3=C([C@@H](O)C[C@]12C)[C@@]1(C)CCC(=O)C(C)(C)[C@@H]1C[C@@H]3O)C(=O)O` (stereo partly drawn) [GANODERIC ACID DF], for which the IC50 is 219 µM. On the same count and under the same terms, with `C/C(=C\CC[C@@H](C)[C@H]1CC[C@@]2(C)C3=CC[C@H]4C(C)(C)[C@@H](O)CC[C@]4(C)C3=CC[C@]12C)CO` [GANODEROL B] the figure was 110 µM; with `C[C@H](CC(=O)C[C@@H](C)[C@H]1C[C@H](O)[C@@]2(C)C3=C(C(=O)C[C@]12C)[C@@]1(C)CCC(=O)C(C)(C)[C@@H]1C[C@@H]3O)C(=O)O` [GANODERIC ACID A], 528 µM; with `CC(CC(=O)C[C@@H](C)[C@H]1CC(=O)[C@@]2(C)C3=C(C(=O)[C@@H](O)[C@]12C)[C@@]1(C)CC[C@H](O)C(C)(C)[C@@H]1CC3=O)C(=O)O` (stereo partly drawn) [GANODERIC ACID C6], over 600 µM.

Take `COC(=O)C(C)CC(=O)C[C@@H](C)[C@H]1C[C@H](O)[C@@]2(C)C3=C(C(=O)C[C@]12C)[C@@]1(C)CCC(=O)C(C)(C)[C@@H]1C[C@@H]3O` (stereo partly drawn) [METHYL GANODERATE A]: the IC50 is over 600 µM. In the case of `C[C@H](CC(=O)C[C@@H](C)[C@H]1C[C@H](O)[C@@]2(C)C3=C(C(=O)C[C@]12C)[C@@]1(C)CC[C@H](O)C(C)(C)[C@@H]1C[C@@H]3O)C(=O)O` [GANODERIC ACID C2], the IC50 is over 600 µM. `COC(=O)C(C)CC(=O)C[C@@H](C)[C@H]1CC(=O)[C@@]2(C)C3=C([C@@H](O)C[C@]12C)[C@@]1(C)CCC(=O)C(C)(C)[C@@H]1C[C@@H]3O` (stereo partly drawn): the half-inhibitory concentration (IC50) is over 600 µM. As for `CC(CC(=O)C[C@@H](C)[C@H]1CC(=O)[C@@]2(C)C3=C(C(=O)C[C@]12C)[C@@]1(C)CCC(=O)C(C)(C)[C@@H]1C[C@@H]3O)C(=O)O` (stereo partly drawn) [GANODERIC ACID D], the IC50 is over 600 µM. For the compound `C/C(=C\C(=O)CC(C)C(=O)O)[C@H]1C[C@H](O)[C@@]2(C)C3=C(C(=O)C[C@]12C)[C@@]1(C)CCC(=O)C(C)(C)[C@@H]1C[C@@H]3O` (stereo partly drawn) [GANODERENIC ACID A], the half-maximal inhibitory concentration (IC50) was 445 µM. Turning to `C[C@H](CC(=O)C[C@@H](C)[C@H]1CC(=O)[C@@]2(C)C3=C(C(=O)C[C@]12C)[C@@]1(C)CCC(=O)C(C)(C)[C@@H]1C[C@@H]3O)C(=O)O` [GANODERIC ACID C1], the IC50 is over 600 µM. Same read-out and setting: with `CC(=O)O[C@@H]1C(=O)C2=C(C(=O)C[C@H]3C(C)(C)[C@@H](O)CC[C@]23C)[C@]2(C)C(=O)C[C@H]([C@H](C)CC(=O)CC(C)C(=O)O)[C@@]12C` (stereo partly drawn) [GANODERIC ACID H] the figure was over 600 µM; with `CC(CC(=O)C[C@@H](C)[C@H]1CC(=O)[C@@]2(C)C3=C(C(=O)C[C@]12C)[C@@]1(C)CC[C@H](O)C(C)(C)[C@@H]1C[C@@H]3O)C(=O)O` (stereo partly drawn) [GANODERIC ACID B], 464 µM.

Consider `C[C@H]1O[C@H](O[C@H]2[C@H](O)[C@@H](O)[C@@H](O[C@H]3[C@H](O)[C@@H](O)C(O)O[C@@H]3CO)O[C@@H]2CO)[C@H](O)[C@@H](O)[C@@H]1N[C@H]1C=C(CO)[C@@H](O)[C@H](O)[C@H]1O` (stereo partly drawn) [ACARBOSE], for which the IC50 is 522 µM. For the compound `COC(=O)C(C)CC(=O)/C=C(\C)[C@H]1C[C@H](O)[C@@]2(C)C3=C(C(=O)C[C@]12C)[C@@]1(C)CCC(=O)C(C)(C)[C@@H]1C[C@@H]3O` (stereo partly drawn) [METHYL GANODERENATE A], the IC50 is over 600 µM.

Turning to `CC(CC(=O)C[C@@H](C)[C@H]1CC(=O)[C@@]2(C)C3=C(C(=O)[C@@H](O)[C@]12C)[C@@]1(C)CC[C@H](O)C(C)(C)[C@@H]1C[C@@H]3O)C(=O)O` (stereo partly drawn) [GANODERIC ACID G], the IC50 is over 600 µM.

For `CC(=O)O[C@@H]1C(=O)C2=C([C@@H](O)C[C@H]3C(C)(C)[C@@H](O)CC[C@]23C)[C@]2(C)C(=O)C[C@H]([C@H](C)CC(=O)CC(C)C(=O)O)[C@@]12C` (stereo partly drawn) [GANODERIC ACID K], the IC50 is over 600 µM. Regarding `C[C@H](CCC=C(CO)CO)[C@H]1CC[C@@]2(C)C3=CC[C@H]4C(C)(C)C(=O)CC[C@]4(C)C3=CC[C@]12C` [GANODERIOL F], the IC50 turned out to be 208 µM. In the case of `CC(CC(=O)C[C@@H](C)[C@H]1C[C@H](O)[C@@]2(C)C3=C(C(=O)C[C@]12C)[C@@]1(C)CCC(=O)C(C)(C)[C@@H]1CC3=O)C(=O)O` (stereo partly drawn) [GANODERIC ACID J], the IC50 was over 600 µM. Consider `C[C@H](CC[C@H](O)[C@](C)(O)CO)[C@H]1CC[C@@]2(C)C3=CC[C@H]4C(C)(C)C(=O)CC[C@]4(C)C3=CC[C@]12C` [GANODERMANONTRIOL], for which the IC50 came out at 540 µM. Regarding `CC(CC(=O)C[C@@H](C)[C@H]1C[C@H](O)[C@@]2(C)C3=C(C(=O)C[C@]12C)[C@@]1(C)CC[C@H](O)C(C)(C)[C@@H]1CC3)C(=O)O` (stereo partly drawn) [GANOLUCIDIC ACID B], the IC50 is over 600 µM.

The species entered for the next experiment is Homo sapiens. The experiment is described as follows: Ratio of acarbose IC50 to compound IC50 for alpha-glucosidase (unknown origin).
As for `CC(CC(=O)C[C@@H](C)[C@H]1CC(=O)[C@@]2(C)C3=C([C@@H](O)C[C@]12C)[C@@]1(C)CCC(=O)C(C)(C)[C@@H]1C[C@@H]3O)C(=O)O` (stereo partly drawn) [GANODERIC ACID DF], the Ratio IC50 is 2.5. Still for that read-out and setting: with `C/C(=C\CC[C@@H](C)[C@H]1CC[C@@]2(C)C3=CC[C@H]4C(C)(C)[C@@H](O)CC[C@]4(C)C3=CC[C@]12C)CO` [GANODEROL B] the figure was 5. On the same count and under the same terms, the result for `C[C@H](CCC=C(CO)CO)[C@H]1CC[C@@]2(C)C3=CC[C@H]4C(C)(C)C(=O)CC[C@]4(C)C3=CC[C@]12C` [GANODERIOL F] reads 3.
